{"source": "paper PMC12799524", "about": "“Putative new biomarkers for renal transporter-mediated drug-drug interactions: Characterization as substrates of organic cation transporter 2, multidrug and toxin extrusion protein 1, and other important drug transporters” (Drug Metabolism and Disposition, 2025)", "format_in_all_cases": "in vitro ADME", "key": {"human OAT1": {"biological_target": "T1, human OAT1 (Homo sapiens, UniProt Q4U2R8)", "T1 construct": "expressed in transfected cells; host or cells: HEK293 (HEK-OAT1), plasmid pOAT1.31 in pcDNA3.1/Hy(-)", "T1 sequence (Q4U2R8 1-563)": "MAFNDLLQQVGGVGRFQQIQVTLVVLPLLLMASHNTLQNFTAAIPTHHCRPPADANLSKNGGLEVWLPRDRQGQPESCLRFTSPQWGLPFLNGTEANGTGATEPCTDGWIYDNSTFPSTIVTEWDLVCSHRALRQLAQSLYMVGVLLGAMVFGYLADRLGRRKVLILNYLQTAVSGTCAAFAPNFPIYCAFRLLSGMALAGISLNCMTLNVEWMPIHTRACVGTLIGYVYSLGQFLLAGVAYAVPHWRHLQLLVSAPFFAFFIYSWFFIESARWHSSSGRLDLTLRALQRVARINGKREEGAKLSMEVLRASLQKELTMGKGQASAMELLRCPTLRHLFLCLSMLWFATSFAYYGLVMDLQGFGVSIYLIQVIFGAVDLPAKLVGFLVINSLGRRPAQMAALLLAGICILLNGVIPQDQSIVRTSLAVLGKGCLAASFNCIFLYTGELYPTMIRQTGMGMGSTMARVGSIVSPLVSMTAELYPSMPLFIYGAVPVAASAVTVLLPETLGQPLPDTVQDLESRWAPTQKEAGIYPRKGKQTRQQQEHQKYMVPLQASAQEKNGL", "test": "Uptake assay in HEK-OAT1 vs HEK-VC cells", "description": "(§1) Transport experiments were performed 48 hours after seeding."}, "human OCT2 [1]": {"biological_target": "T2, human OCT2 (Homo sapiens, UniProt O15244)", "T2 sequence (O15244 1-555)": "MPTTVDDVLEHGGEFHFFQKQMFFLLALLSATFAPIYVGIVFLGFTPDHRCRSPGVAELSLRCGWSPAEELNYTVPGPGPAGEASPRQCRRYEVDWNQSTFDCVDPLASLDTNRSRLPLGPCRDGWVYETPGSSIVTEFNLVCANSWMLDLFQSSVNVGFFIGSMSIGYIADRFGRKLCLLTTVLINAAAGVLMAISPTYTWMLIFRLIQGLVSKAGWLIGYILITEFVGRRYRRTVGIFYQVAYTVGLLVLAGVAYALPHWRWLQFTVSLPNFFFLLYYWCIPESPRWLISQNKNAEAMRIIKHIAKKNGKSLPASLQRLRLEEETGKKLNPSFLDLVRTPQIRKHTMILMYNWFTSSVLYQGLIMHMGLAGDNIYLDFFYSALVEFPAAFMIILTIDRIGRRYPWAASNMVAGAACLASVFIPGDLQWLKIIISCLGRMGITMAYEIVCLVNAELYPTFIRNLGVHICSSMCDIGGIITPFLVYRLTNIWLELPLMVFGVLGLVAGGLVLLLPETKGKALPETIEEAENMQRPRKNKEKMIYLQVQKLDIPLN", "test": "Intracellular accumulation and transcellular transport in MDCK-OCT2 monolayers", "parameters": "expressed in transfected cells", "details": "for Intracellular concentration in MDCK-OCT2 cells in comparison to MDCK-VC cells: 10 μM basal, 60 minutes", "description": "The intracellular accumulation and transcellular, basal to apical transport experiments were performed as previously described in monolayers of polarized single-transfected (MDCK-OCT2, MDCK-MATE1) and double-transfected (MDCK-OCT2-MATE1) MDCK cells, MDCK control cells (MDCK-VC), or Caco-2 cells.[22] In brief, cell monolayers were grown in cell culture inserts on porous membranes. For MDCK-VC, MDCK-OCT2 and Caco-2, 5 × 10^5 cells were used per well; for MDCK-OCT2-MATE1, 6 × 10^5 cells were used, and for MDCK-MATE1, 8 × 10^5 cells were used per well. Cells were grown to confluence for 72 hours, induced with 10 mM sodium butyrate 48 hours after seeding for 24 hours (MDCK only), and subsequently used for transport experiments.\nIn general, after the cell culture medium was removed from both sides of the monolayers, cells were washed at 37 °C with transport buffer of the same composition as described in the previous section. Experiments were started by replacing the medium in the basal compartment with medium containing the putative biomarkers or [^3H]-labeled positive control substrates. The pH of the buffer on the basal side was 7.3 and 6.5 on the apical side for MDCK cells, whereas it was 7.3 on either side for Caco-2 cells. Cells were incubated at 37 °C and the buffer from the apical compartment was taken after 60 minutes for MDCK cells and after 240 minutes for Caco-2 cells. In case of Caco-2 cells, endogenous P-gp was inhibited by adding 2 μM of valspodar to the basal compartment. To measure the cellular accumulation of the test compounds, the remaining medium was removed at the end of the incubation period and the cell monolayers were rapidly rinsed 3 times with ice-cold 0.9% NaCl in water. Filters were detached from the chambers and placed into 500 μL of 80% MeOH containing the aforementioned recovery standards to lyse cells for subsequent LC-MS analysis or into 600 μL of 0.2% SDS (control experiments only). In the control experiments, the radioactivity of the collected apical medium and the solubilized cell monolayers and protein concentrations of the cell lysates were measured in the same way as described for the experiments with HEK cells.\n(§2) The intracellular background of all 5 compounds in HEK cells at the beginning of the uptake experiments was investigated 48 hours after seeding without incubation with transport buffer (ie, 0 minutes). […] Then, cells were lysed with ice-cold 80% MeOH containing the aforementioned recovery standards. In addition, the impact of a 5-minute incubation period with transport buffer without added substance was investigated."}, "human OCT2 [2]": {"biological_target": "T2, human OCT2", "test": "Uptake assay in HEK-OCT2 vs HEK-VC cells", "parameters": "expressed in transfected cells; host or cells: HEK293 (HEK-OCT2)", "details": "for Effect of cimetidine on uptake in HEK-OCT2 cells: cimetidine 50 μM; for Effect of cimetidine on uptake in HEK-OCT2 cells / Uptake in HEK-OCT2 cells compared to HEK-VC cells (in words): 10 and 100 μM substrate; for In Vitro OCT2 (substrate class): summary of in vitro uptake/transport results", "description": "as §1, §2"}, "[3]": {"details": "10 μM substrate, 5 minutes, HEK-VC set to 100%"}}, "data": [{"smiles": "Cn1cnc(CCN)c1", "note": "[1-Methylhistamine, 1-methylhistamine]", "values": [{"measurement": "In Vitro OAT1 (substrate class)", "setting": "human OAT1", "result": "-"}]}, {"smiles": "C[N+](C)(C)CCCCC(=O)[O-]", "note": "[5-Amino valeric acid betaine, 5-amino valeric acid betaine]", "values": [{"measurement": "In Vitro OAT1 (substrate class)", "setting": "human OAT1", "result": "-"}, {"measurement": "Intracellular concentration in MDCK-OCT2 cells in comparison to MDCK-VC cells", "setting": "human OCT2 [1]", "result": "significantly increased"}, {"measurement": "Intracellular background in MDCK-OCT2 cells vs MDCK-VC cells", "setting": "human OCT2 [1]; 60 minutes without added substance", "result": "much lower"}, {"measurement": "Intracellular background in HEK-OCT2 cells compared to HEK-VC cells", "setting": "human OCT2 [2]; 0 minutes, without added substance", "result": "lower"}, {"measurement": "Intracellular concentration in HEK-OCT2 cells compared to HEK-VC cells (in words)", "setting": "human OCT2 [2]; 10 μM substrate, 5 minutes", "result": "comparable"}, {"measurement": "Intracellular concentration in HEK-OCT2 cells compared to HEK-VC cells (in words)", "setting": "human OCT2 [2]; 100 μM substrate, 5 minutes", "result": "significantly higher"}, {"measurement": "Intracellular background in HEK-OCT2 cells compared to HEK-VC cells", "setting": "human OCT2 [2]; 5 minutes in transport buffer without added substance", "result": "lower"}, {"measurement": "Effect of cimetidine on uptake in HEK-OCT2 cells", "setting": "human OCT2 [2]; 5 minutes", "result": "significantly reduced"}, {"measurement": "In Vitro OCT2 (substrate class)", "setting": "human OCT2 [2]", "result": "+"}]}, {"smiles": "NCCc1c[nH]c2ccc(O)cc12", "note": "[Serotonin, serotonin]", "values": [{"measurement": "In Vitro OAT1 (substrate class)", "setting": "human OAT1", "result": "-"}, {"measurement": "Intracellular concentration in MDCK-OCT2 cells in comparison to MDCK-VC cells", "setting": "human OCT2 [1]", "result": "significantly increased"}, {"measurement": "Uptake in HEK-OCT2 cells compared to HEK-VC cells", "setting": "human OCT2 [2]; [3]", "result": 3960, "unit": "%"}, {"measurement": "Uptake ratio in HEK-OCT2 cells compared to HEK-VC cells", "setting": "human OCT2 [2]; 100 μM substrate, 5 minutes, HEK-VC set to 100%", "result": 6281, "unit": "%"}, {"measurement": "Uptake in HEK-OCT2 cells compared to HEK-VC cells (in words)", "setting": "human OCT2 [2]; 5 minutes", "result": "significantly higher"}, {"measurement": "Effect of cimetidine on uptake in HEK-OCT2 cells", "setting": "human OCT2 [2]; 5 minutes", "result": "significantly reduced"}, {"measurement": "In Vitro OCT2 (substrate class)", "setting": "human OCT2 [2]", "result": "++"}]}, {"smiles": "NCCc1ccc(O)cc1", "note": "[Tyramine, tyramine]", "values": [{"measurement": "In Vitro OAT1 (substrate class)", "setting": "human OAT1", "result": "-"}, {"measurement": "Intracellular concentration in MDCK-OCT2 cells in comparison to MDCK-VC cells", "setting": "human OCT2 [1]", "result": "significantly increased"}, {"measurement": "Uptake in HEK-OCT2 cells compared to HEK-VC cells", "setting": "human OCT2 [2]; [3]", "result": 3245, "unit": "%"}, {"measurement": "Uptake in HEK-OCT2 cells compared to HEK-VC cells (in words)", "setting": "human OCT2 [2]; 5 minutes", "result": "significantly higher"}, {"measurement": "Effect of cimetidine on uptake in HEK-OCT2 cells", "setting": "human OCT2 [2]; 5 minutes", "result": "significantly reduced"}, {"measurement": "In Vitro OCT2 (substrate class)", "setting": "human OCT2 [2]", "result": "++"}]}]}
